Series [1] in a line: Volume of distribution at steady state in mouse. The format is ADME, organism-based. The conditions noted are these: in vivo, read-out: Vdss.
In series [2] the test system is Mus musculus. Put plainly: Antiinflammatory activity in po dosed mouse assessed as reduction in LPS-induced nitatre level in plasma. The format is functional.
The target of series [3] is Nitric oxide synthase, inducible (Homo sapiens, UniProt P35228). Put plainly: Inhibition of human iNOS expressed in HEK293 cells assessed as NO production by 2,3-diaminonapthalene-based fluorescence assay. The format is cell-based.
Series [4] is described as follows: AUC in mouse at 10 mg/kg, po. More on the design: dose 10 mg/kg, route oral. The format is ADME, organism-based. Conditions: plasma.
Series [5] concerns the target T1, Nitric oxide synthase, inducible (Mus musculus, UniProt P29477).
T1 sequence (P29477 whole entry): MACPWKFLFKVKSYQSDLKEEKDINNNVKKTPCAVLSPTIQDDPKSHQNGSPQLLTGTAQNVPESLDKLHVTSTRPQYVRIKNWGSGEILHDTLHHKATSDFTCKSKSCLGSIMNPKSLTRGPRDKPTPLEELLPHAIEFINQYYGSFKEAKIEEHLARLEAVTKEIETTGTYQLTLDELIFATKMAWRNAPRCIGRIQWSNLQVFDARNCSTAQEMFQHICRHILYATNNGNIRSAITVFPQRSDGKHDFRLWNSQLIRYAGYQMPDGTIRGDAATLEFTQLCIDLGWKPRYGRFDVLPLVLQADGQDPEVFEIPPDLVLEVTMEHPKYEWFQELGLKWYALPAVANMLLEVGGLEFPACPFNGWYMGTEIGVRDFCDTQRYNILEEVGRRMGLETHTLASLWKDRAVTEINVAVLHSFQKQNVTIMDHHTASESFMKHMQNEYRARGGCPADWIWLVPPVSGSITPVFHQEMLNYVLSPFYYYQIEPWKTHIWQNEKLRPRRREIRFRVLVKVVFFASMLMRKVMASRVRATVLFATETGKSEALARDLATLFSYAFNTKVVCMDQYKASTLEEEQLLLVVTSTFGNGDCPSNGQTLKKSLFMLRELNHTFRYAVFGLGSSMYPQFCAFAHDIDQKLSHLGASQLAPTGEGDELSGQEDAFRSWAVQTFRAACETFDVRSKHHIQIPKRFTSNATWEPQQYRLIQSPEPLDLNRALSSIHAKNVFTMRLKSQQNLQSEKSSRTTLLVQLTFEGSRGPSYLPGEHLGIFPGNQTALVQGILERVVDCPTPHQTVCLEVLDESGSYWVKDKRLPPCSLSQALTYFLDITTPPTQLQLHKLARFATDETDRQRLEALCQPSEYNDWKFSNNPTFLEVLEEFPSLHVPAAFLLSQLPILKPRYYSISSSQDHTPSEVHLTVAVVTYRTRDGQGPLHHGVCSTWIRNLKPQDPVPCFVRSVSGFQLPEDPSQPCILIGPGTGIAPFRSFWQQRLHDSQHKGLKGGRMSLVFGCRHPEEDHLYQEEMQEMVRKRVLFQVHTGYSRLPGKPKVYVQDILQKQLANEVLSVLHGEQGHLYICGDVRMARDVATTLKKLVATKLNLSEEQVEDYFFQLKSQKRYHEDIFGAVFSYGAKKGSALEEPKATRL
The series is described as follows: Inhibition of mouse iNOS.

The nature of series [6]: Cmax in mouse at 10 mg/kg, po. The class given is ADME, organism-based. More on the design: dose 10 mg/kg, route oral. The conditions noted are these: in vivo.
The nature of series [7]: Oral bioavailability in mouse at 10 mg/kg. The format is ADME, organism-based. Conditions: in vivo.
Series [8] concerns the target T2, Nitric oxide synthase 3 (Homo sapiens, UniProt P29474).
T2 sequence (P29474 whole entry): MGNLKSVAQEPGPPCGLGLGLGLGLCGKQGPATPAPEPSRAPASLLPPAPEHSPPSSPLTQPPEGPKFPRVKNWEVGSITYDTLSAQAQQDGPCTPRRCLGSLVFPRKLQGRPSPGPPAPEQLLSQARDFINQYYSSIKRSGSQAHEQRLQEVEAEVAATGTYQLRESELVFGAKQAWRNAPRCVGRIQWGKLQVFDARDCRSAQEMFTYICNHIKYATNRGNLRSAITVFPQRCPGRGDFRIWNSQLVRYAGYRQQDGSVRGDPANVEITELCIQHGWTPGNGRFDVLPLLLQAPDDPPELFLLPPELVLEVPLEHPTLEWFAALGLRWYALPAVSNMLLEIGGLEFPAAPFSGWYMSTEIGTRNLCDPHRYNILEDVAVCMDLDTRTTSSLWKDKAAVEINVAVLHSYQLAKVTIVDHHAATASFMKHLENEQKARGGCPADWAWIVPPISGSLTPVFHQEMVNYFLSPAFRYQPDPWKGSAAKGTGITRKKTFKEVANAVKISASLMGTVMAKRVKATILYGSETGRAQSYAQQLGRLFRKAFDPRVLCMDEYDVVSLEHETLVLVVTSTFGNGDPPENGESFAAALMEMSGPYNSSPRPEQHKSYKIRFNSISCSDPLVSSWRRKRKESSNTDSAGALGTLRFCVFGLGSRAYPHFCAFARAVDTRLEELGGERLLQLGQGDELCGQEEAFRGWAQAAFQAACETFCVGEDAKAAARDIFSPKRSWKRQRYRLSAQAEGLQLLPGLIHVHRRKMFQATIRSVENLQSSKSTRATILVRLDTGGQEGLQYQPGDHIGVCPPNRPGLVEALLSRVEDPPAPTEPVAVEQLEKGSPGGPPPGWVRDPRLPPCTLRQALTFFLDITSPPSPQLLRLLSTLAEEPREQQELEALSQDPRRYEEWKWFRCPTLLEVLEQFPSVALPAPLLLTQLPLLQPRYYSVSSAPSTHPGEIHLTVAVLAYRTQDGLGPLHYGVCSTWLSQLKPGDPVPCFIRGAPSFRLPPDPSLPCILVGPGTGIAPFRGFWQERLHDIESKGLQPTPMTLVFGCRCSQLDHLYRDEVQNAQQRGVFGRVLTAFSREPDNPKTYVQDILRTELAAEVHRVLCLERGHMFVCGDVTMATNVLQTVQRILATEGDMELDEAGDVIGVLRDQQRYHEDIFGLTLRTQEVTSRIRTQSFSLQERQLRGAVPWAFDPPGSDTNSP
The series is described as follows: Inhibition of human eNOS expressed in HEK293 cells assessed as NO production by 2,3-diaminonapthalene-based fluorescence assay. The format is cell-based.

In series [9] the target is Nitric oxide synthase 1 (Homo sapiens, UniProt P29475). Put plainly: Inhibition of human nNOS expressed in HEK293 cells assessed as NO production by 2,3-diaminonapthalene-based fluorescence assay. The format is cell-based.
In series [10] the target is Nitric oxide sythases; iNOS & nNOS (Homo sapiens) (UniProt P29475+P35228). The series is described as follows: Selectivity ratio of IC50 for human nNOS to IC50 for human iNOS.
The species entered for series [11] is Homo sapiens. Put plainly: Selectivity ratio of IC50 for human eNOS to IC50 for human iNOS.
For series [12], the system named is Mus musculus. The series is described as follows: Antiinflammatory activity in mouse assessed as reduction in LPS-induced nitatre level in plasma at 30 mg/kg, po. The format is functional. More on the design: scale not given: the % may be the effect or the level left.
A short description of series [13]: Plasma clearance in mouse. The format is ADME, organism-based.
Series [14] can be described thus: Half life in mouse. The format is ADME, organism-based. The conditions noted are these: in vivo.

Chain of Nitric oxide synthase, inducible (Homo sapiens, UniProt P35228) (P35228 whole entry): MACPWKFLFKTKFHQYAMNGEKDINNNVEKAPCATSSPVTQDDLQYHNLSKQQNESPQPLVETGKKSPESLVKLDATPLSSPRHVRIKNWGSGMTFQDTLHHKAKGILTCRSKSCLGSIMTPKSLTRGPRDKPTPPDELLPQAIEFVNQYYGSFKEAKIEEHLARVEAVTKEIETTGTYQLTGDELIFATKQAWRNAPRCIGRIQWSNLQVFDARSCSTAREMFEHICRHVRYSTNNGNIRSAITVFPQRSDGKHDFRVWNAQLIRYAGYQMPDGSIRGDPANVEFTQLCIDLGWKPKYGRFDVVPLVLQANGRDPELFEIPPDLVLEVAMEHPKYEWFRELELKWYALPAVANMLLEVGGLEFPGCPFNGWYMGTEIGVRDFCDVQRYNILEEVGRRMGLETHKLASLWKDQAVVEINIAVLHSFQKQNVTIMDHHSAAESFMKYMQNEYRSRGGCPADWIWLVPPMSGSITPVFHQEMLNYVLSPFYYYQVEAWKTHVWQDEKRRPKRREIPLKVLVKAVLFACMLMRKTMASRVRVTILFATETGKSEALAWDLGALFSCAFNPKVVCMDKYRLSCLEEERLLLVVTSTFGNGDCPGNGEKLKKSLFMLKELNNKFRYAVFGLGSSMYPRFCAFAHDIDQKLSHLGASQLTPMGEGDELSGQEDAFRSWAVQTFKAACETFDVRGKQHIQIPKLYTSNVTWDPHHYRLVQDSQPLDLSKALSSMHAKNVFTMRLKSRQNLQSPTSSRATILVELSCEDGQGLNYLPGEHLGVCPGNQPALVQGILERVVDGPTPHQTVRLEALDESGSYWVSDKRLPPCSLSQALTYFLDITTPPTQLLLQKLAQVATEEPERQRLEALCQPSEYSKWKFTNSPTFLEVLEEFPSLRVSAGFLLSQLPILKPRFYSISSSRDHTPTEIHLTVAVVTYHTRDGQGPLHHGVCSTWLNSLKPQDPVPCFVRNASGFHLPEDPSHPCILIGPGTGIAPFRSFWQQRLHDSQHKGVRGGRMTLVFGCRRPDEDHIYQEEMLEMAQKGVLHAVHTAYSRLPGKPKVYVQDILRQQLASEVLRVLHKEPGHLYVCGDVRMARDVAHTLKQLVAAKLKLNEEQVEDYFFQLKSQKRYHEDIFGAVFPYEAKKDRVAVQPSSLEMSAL
Chain of Nitric oxide synthase 1 (P29475 whole entry): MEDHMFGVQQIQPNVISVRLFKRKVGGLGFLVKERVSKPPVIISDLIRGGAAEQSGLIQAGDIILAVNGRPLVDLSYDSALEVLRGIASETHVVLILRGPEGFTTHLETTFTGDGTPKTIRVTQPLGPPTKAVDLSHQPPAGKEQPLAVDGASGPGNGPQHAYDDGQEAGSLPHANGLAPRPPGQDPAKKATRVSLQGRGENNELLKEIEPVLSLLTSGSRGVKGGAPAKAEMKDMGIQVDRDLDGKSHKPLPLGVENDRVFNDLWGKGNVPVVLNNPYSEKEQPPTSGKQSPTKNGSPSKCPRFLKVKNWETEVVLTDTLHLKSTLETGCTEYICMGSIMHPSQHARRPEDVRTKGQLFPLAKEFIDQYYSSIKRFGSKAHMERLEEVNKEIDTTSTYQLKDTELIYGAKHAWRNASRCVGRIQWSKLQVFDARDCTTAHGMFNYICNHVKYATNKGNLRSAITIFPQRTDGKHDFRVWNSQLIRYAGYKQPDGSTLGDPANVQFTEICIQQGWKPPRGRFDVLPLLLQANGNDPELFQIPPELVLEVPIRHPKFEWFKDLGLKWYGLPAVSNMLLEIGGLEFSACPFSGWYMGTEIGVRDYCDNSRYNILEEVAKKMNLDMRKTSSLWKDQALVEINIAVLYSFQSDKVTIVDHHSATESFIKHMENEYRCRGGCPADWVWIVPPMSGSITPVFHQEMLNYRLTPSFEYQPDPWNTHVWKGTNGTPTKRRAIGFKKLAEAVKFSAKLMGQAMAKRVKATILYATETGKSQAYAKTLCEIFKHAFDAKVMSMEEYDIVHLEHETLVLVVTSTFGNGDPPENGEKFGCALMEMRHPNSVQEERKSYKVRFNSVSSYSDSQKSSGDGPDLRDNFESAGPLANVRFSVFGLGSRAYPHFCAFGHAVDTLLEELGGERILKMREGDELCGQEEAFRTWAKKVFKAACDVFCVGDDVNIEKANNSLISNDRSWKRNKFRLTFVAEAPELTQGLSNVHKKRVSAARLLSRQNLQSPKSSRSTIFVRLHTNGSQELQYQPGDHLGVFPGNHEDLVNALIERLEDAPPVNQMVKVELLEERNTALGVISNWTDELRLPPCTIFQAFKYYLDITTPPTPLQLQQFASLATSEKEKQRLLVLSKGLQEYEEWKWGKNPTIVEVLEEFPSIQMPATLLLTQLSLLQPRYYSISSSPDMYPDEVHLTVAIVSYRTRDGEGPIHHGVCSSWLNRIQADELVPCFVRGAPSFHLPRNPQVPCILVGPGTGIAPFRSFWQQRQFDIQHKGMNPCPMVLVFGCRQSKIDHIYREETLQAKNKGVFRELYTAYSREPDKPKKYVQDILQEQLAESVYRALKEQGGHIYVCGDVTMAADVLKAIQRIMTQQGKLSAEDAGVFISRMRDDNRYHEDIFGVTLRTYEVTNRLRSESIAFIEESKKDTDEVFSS
Chain of Nitric oxide sythases; iNOS & nNOS (Homo sapiens) (P29475 whole entry, looked up): as the sequence (P29475 whole entry) above
Chain of Nitric oxide sythases; iNOS & nNOS (Homo sapiens) (P35228 whole entry, looked up): as the sequence (P35228 whole entry) above

What is called ED50 is the dose that gives a 50% effect, or the effect in half of the subjects. Usually IC50 stands for the concentration that inhibits the measured activity by half. By AUC is commonly meant the area under the concentration-time curve, a measure of exposure. As for `O=c1cc(Cn2c(C3CCC3)nc3nccnc32)c2ccc(F)c(F)c2[nH]1`, the Vd in series [1] turned out to be 0.4 L/kg. Besides, in series [2], the ED50 turned out to be 1 mg/kg. Further, the figures for the IC50 in [3] and in [5] were 91 nM and 500 nM, respectively. The molecule further showed an area under the curve (AUC) in [4] of 25000 ng·h/mL.
Broadly, the Cmax is the highest concentration seen after dosing. What is called bioavailability is dose-corrected exposure relative to a reference, in per cent. A word on the clearance: it is the rate of elimination divided by the concentration. Usually half-life stands for the time in which the quantity being followed falls by half. With `O=c1cc(CN(c2cccc(Cl)c2)c2cnccn2)c2ccc(F)c(F)c2[nH]1`, in [6], the Cmax came out at 45 ng/mL. In series [7], this molecule came in with a bioavailability of 3%. Moreover, the half-inhibitory concentration (IC50) came out at 1500 nM in [8], 12 nM in [9], 5 nM in [3] and 5 nM in [5]. Further, in [1], the Vd turned out to be 1.7 L/kg. For the same molecule, the Ratio IC50 worked out at 2 in series [10] and 300 in [11]. Further, the median effective dose (ED50) in [2] was found to be 3.6 mg/kg. Moreover, the AUC in [4] stood at 120 ng·h/mL. Further, the Activity in series [12] was found to be 80%. For the same molecule, the clearance in [13] stood at 34 mL/min/kg. Further, the half-life in [14] is 126 min.

The values are drawn from ChEMBL document CHEMBL1944593, “Heteroaromatic-aminomethyl quinolones: potent and selective iNOS inhibitors” (Bioorg Med Chem Lett, 2012).
